From publication PMC9228592, “Dichloroacetyl Amides of 3,5-Bis(benzylidene)-4-piperidones Displaying Greater Toxicity to Neoplasms than to Non-Malignant Cells” (Medicines, 2022)

System: HSC-4 squamous cell carcinoma cells
Assay: Cytotoxicity (MTT, 48 h) against HSC-4 cells
Assay type: cell-based, human
Conditions: 48 h, MTT, mean ± S.D. of triplicate
Text: (§1) The target cells used in our study were human oral squamous cell carcinoma cell lines Ca9-22 (purchased from RIKEN Cell Bank, Tukuba, RCB-1976), HSC-2 (RCB1945), HSC-3 (RCB1975), HSC-4 (RCB1902), and three human normal oral cells, gingival fibroblast (HGF), periodontal ligament fibroblast (HPLF), and pulp cells (HPC) [established from the first premolar extracted tooth in the lower jaw (because of dysfunctional position or orthodontic treatment) and periodontal tissues of a child, according to the guideline of the Institutional Board of Meikai University Ethics Committee (No. A0808)], after obtaining informed consent from the patients. These cells were incubated for 48 h with the indicated concentrations of test samples or reference compounds sodium dichloroacetate (purchased from Sigma-Aldrich Chemical Company, Saint Louis, MO, USA), 5-fluorouracil (5-FU) from Kyowa (Tokyo, Japan), and doxorubicin (DXR) (St. Louis, MO, USA) and vehicle (DMSO) (0.008, 0.016, 0.031, 0.063, 0.125, 0.25, 0.5, and 1%) in Dulbecco’s Modified Eagle Medium (DMEM) media, which was supplemented with 10% heat-inactivated fetal bovine serum. Cell viability was determined by the MTT method. Cytotoxicity caused by the vehicle (DMSO) was subtracted.
(§2) SI was calculated by dividing the average CC50 value (concentration of the compound to kill 50% of the cells) of the compound towards HGF, HPLF, and HPC cells by the CC50 value of the compound against a specific neoplastic cell line.

Structure (SMILES)	CC50 [nM]
O=C1C(=Cc2ccc(Cl)c(Cl)c2)CN(C(=O)C(Cl)Cl)CC1=Cc1ccc(Cl)c(Cl)c1 [Compound 1e]	230 ± 10
COc1ccc(/C=C2\CN(C(=O)C(Cl)Cl)C/C(=C\c3ccc(OC)cc3)C2=O)cc1 [Compound 1f]	1260 ± 270
COc1cc(/C=C2\CN(C(=O)C(Cl)Cl)C/C(=C\c3cc(OC)c(OC)c(OC)c3)C2=O)cc(OC)c1OC [Compound 1h]	990 ± 390

Same assay, conditions: average CC50 towards HGF, HPLF, HPC divided by CC50 against HSC-4

Structure (SMILES)	SI (HSC-4)
O=C1C(=Cc2ccc(Cl)c(Cl)c2)CN(C(=O)C(Cl)Cl)CC1=Cc1ccc(Cl)c(Cl)c1 [Compound 1e]	3.39
COc1ccc(/C=C2\CN(C(=O)C(Cl)Cl)C/C(=C\c3ccc(OC)cc3)C2=O)cc1 [Compound 1f]	4.75
COc1cc(/C=C2\CN(C(=O)C(Cl)Cl)C/C(=C\c3cc(OC)c(OC)c(OC)c3)C2=O)cc(OC)c1OC [Compound 1h]	8.67

System: periodontal ligament fibroblast (HPLF)
Assay: Cytotoxicity (MTT, 48 h) against HPLF non-malignant cells
Assay type: cell-based, human
Conditions: mean ± S.D. of triplicate
Text: as §1

Structure (SMILES)	CC50 [nM]
O=C1C(=Cc2ccc(Cl)c(Cl)c2)CN(C(=O)C(Cl)Cl)CC1=Cc1ccc(Cl)c(Cl)c1 [Compound 1e]	820 ± 100
COc1ccc(/C=C2\CN(C(=O)C(Cl)Cl)C/C(=C\c3ccc(OC)cc3)C2=O)cc1 [Compound 1f]	5330 ± 320
COc1cc(/C=C2\CN(C(=O)C(Cl)Cl)C/C(=C\c3cc(OC)c(OC)c(OC)c3)C2=O)cc(OC)c1OC [Compound 1h]	17000 ± 5100

System: Ca9-22 squamous cell carcinoma cells
Assay: Cytotoxicity (MTT, 48 h) against Ca9-22 cells
Assay type: cell-based, human
Conditions: 48 h, MTT, mean ± S.D. of triplicate
Text: as §1, §2

Structure (SMILES)	CC50 [nM]
O=C1C(=Cc2ccc(Cl)c(Cl)c2)CN(C(=O)C(Cl)Cl)CC1=Cc1ccc(Cl)c(Cl)c1 [Compound 1e]	40
COc1ccc(/C=C2\CN(C(=O)C(Cl)Cl)C/C(=C\c3ccc(OC)cc3)C2=O)cc1 [Compound 1f]	390 ± 20
COc1cc(/C=C2\CN(C(=O)C(Cl)Cl)C/C(=C\c3cc(OC)c(OC)c(OC)c3)C2=O)cc(OC)c1OC [Compound 1h]	720 ± 150

Same assay, conditions: average CC50 towards HGF, HPLF, HPC divided by CC50 against Ca9-22

Structure (SMILES)	SI (Ca9-22)
O=C1C(=Cc2ccc(Cl)c(Cl)c2)CN(C(=O)C(Cl)Cl)CC1=Cc1ccc(Cl)c(Cl)c1 [Compound 1e]	19.5
COc1ccc(/C=C2\CN(C(=O)C(Cl)Cl)C/C(=C\c3ccc(OC)cc3)C2=O)cc1 [Compound 1f]	15.4
COc1cc(/C=C2\CN(C(=O)C(Cl)Cl)C/C(=C\c3cc(OC)c(OC)c(OC)c3)C2=O)cc(OC)c1OC [Compound 1h]	11.9

System: pulp cells (HPC)
Assay: Cytotoxicity (MTT, 48 h) against HPC non-malignant cells
Assay type: cell-based, human
Conditions: mean ± S.D. of triplicate
Text: as §1

Structure (SMILES)	CC50 [nM]
O=C1C(=Cc2ccc(Cl)c(Cl)c2)CN(C(=O)C(Cl)Cl)CC1=Cc1ccc(Cl)c(Cl)c1 [Compound 1e]	490
COc1ccc(/C=C2\CN(C(=O)C(Cl)Cl)C/C(=C\c3ccc(OC)cc3)C2=O)cc1 [Compound 1f]	3620 ± 70
COc1cc(/C=C2\CN(C(=O)C(Cl)Cl)C/C(=C\c3cc(OC)c(OC)c(OC)c3)C2=O)cc(OC)c1OC [Compound 1h]	4000 ± 600

System: HSC-3 squamous cell carcinoma cells
Assay: Cytotoxicity (MTT, 48 h) against HSC-3 cells
Assay type: cell-based, human
Conditions: 48 h, MTT, mean ± S.D. of triplicate
Text: as §1, §2

Structure (SMILES)	CC50 [nM]
O=C1C(=Cc2ccc(Cl)c(Cl)c2)CN(C(=O)C(Cl)Cl)CC1=Cc1ccc(Cl)c(Cl)c1 [Compound 1e]	130 ± 60
COc1ccc(/C=C2\CN(C(=O)C(Cl)Cl)C/C(=C\c3ccc(OC)cc3)C2=O)cc1 [Compound 1f]	1000 ± 160
COc1cc(/C=C2\CN(C(=O)C(Cl)Cl)C/C(=C\c3cc(OC)c(OC)c(OC)c3)C2=O)cc(OC)c1OC [Compound 1h]	1370 ± 220

Same assay, conditions: average CC50 towards HGF, HPLF, HPC divided by CC50 against HSC-3

Structure (SMILES)	SI (HSC-3)
O=C1C(=Cc2ccc(Cl)c(Cl)c2)CN(C(=O)C(Cl)Cl)CC1=Cc1ccc(Cl)c(Cl)c1 [Compound 1e]	6.00
COc1ccc(/C=C2\CN(C(=O)C(Cl)Cl)C/C(=C\c3ccc(OC)cc3)C2=O)cc1 [Compound 1f]	5.99
COc1cc(/C=C2\CN(C(=O)C(Cl)Cl)C/C(=C\c3cc(OC)c(OC)c(OC)c3)C2=O)cc(OC)c1OC [Compound 1h]	6.26

System: gingival fibroblast (HGF)
Assay: Cytotoxicity (MTT, 48 h) against HGF non-malignant cells
Assay type: cell-based, human
Conditions: mean ± S.D. of triplicate
Text: as §1

Structure (SMILES)	CC50 [nM]
O=C1C(=Cc2ccc(Cl)c(Cl)c2)CN(C(=O)C(Cl)Cl)CC1=Cc1ccc(Cl)c(Cl)c1 [Compound 1e]	1040 ± 130
COc1ccc(/C=C2\CN(C(=O)C(Cl)Cl)C/C(=C\c3ccc(OC)cc3)C2=O)cc1 [Compound 1f]	9030 ± 760
COc1cc(/C=C2\CN(C(=O)C(Cl)Cl)C/C(=C\c3cc(OC)c(OC)c(OC)c3)C2=O)cc(OC)c1OC [Compound 1h]	4700 ± 1600

System: HGF, HPLF, and HPC cells
Assay: Average cytotoxicity over the three non-malignant cells
Assay type: cell-based, human
Conditions: not given
Text: as §1

Structure (SMILES)	CC50 [nM]
O=C1C(=Cc2ccc(Cl)c(Cl)c2)CN(C(=O)C(Cl)Cl)CC1=Cc1ccc(Cl)c(Cl)c1 [Compound 1e]	780
COc1ccc(/C=C2\CN(C(=O)C(Cl)Cl)C/C(=C\c3ccc(OC)cc3)C2=O)cc1 [Compound 1f]	5990
COc1cc(/C=C2\CN(C(=O)C(Cl)Cl)C/C(=C\c3cc(OC)c(OC)c(OC)c3)C2=O)cc(OC)c1OC [Compound 1h]	8580

System: Ca9-22 cells
Assay: Cell cycle assay in Ca9-22 cells
Assay type: cell-based, human
Conditions: 0.8 µM, 20 h
Procedure: The evaluation of varying quantities of 1d,e,k on the cell cycle in Ca9-22 cells was undertaken by a literature method. In brief, Ca9-22 cells were treated for 20 h without (control) or with the indicated concentrations of the test samples. To neglect the cytotoxicity effect of DMSO, all samples contained 0.1% DMSO. Cells (approximately 10^6 cells) were harvested, fixed for 1 h on ice with 1% paraformaldehyde, washed twice by phosphate-buffered saline, treated for 30 min at 37 °C with 0.2 mg/mL RNase A (ribonuclease A), stained for 15 min at room temperature with 0.01% propidium iodide in the presence of 0.01% NP-40 (nonyl phenoxypolyethoxyethanol) to prevent cell aggregation, filtered through Falcon® cell strainers (pore size: 40 µm) (Corning, NY, USA), subjected to cell sorting (SH800 Series; SONY Imaging Products and Solutions Inc., Kanagawa, Japan), and then analyzed with Cell Sorter Software version 2.1.2. (SONY Imaging Products and Solutions Inc., Kanagawa, Japan).

Structure (SMILES)	subG1 population
O=C1C(=Cc2ccc(Cl)c(Cl)c2)CN(C(=O)C(Cl)Cl)CC1=Cc1ccc(Cl)c(Cl)c1 [Compound 1e]	slight increase

Same assay, conditions: 0.8 µM, 20 h, p < 0.05

Structure (SMILES)	G2M cell population
O=C1C(=Cc2ccc(Cl)c(Cl)c2)CN(C(=O)C(Cl)Cl)CC1=Cc1ccc(Cl)c(Cl)c1 [Compound 1e]	most prominent increase

Same assay, conditions: 0.1, 0.2, and 0.4 µM, 20 h

Structure (SMILES)	effect on the cell cycle
O=C1C(=Cc2ccc(Cl)c(Cl)c2)CN(C(=O)C(Cl)Cl)CC1=Cc1ccc(Cl)c(Cl)c1 [Compound 1e]	little effects

System: Ca9-22, HSC-2, HSC-3, and HSC-4 cells
Assay: Average cytotoxicity, selectivity and PSE over the four carcinoma lines
Assay type: cell-based, human
Conditions: average of SI over Ca9-22, HSC-2, HSC-3, HSC-4
Text: as §1, §2
PSE reflects both the potencies and differences in cytotoxicity to neoplasms and non-malignant cells. This value was the product of the reciprocal of the average CC50 value of the compounds towards Ca9-22, HSC-2, HSC-3, and HSC-4 cells and the average SI value × 100.

Structure (SMILES)	Average SI
O=C1C(=Cc2ccc(Cl)c(Cl)c2)CN(C(=O)C(Cl)Cl)CC1=Cc1ccc(Cl)c(Cl)c1 [Compound 1e]	9.66
COc1ccc(/C=C2\CN(C(=O)C(Cl)Cl)C/C(=C\c3ccc(OC)cc3)C2=O)cc1 [Compound 1f]	9.41
COc1cc(/C=C2\CN(C(=O)C(Cl)Cl)C/C(=C\c3cc(OC)c(OC)c(OC)c3)C2=O)cc(OC)c1OC [Compound 1h]	22.0

Same assay, conditions: average over Ca9-22, HSC-2, HSC-3, HSC-4

Structure (SMILES)	CC50 [nM]
O=C1C(=Cc2ccc(Cl)c(Cl)c2)CN(C(=O)C(Cl)Cl)CC1=Cc1ccc(Cl)c(Cl)c1 [Compound 1e]	120
COc1ccc(/C=C2\CN(C(=O)C(Cl)Cl)C/C(=C\c3ccc(OC)cc3)C2=O)cc1 [Compound 1f]	790
COc1cc(/C=C2\CN(C(=O)C(Cl)Cl)C/C(=C\c3cc(OC)c(OC)c(OC)c3)C2=O)cc(OC)c1OC [Compound 1h]	800

System: HSC-2 squamous cell carcinoma cells
Assay: Cytotoxicity (MTT, 48 h) against HSC-2 cells
Assay type: cell-based, human
Conditions: 48 h, MTT, mean ± S.D. of triplicate
Text: as §1, §2

Structure (SMILES)	CC50 [nM]	HSC-2 CC50
O=C1C(=Cc2ccc(Cl)c(Cl)c2)CN(C(=O)C(Cl)Cl)CC1=Cc1ccc(Cl)c(Cl)c1 [Compound 1e]	80 ± 10	double-digit nanomolar
COc1ccc(/C=C2\CN(C(=O)C(Cl)Cl)C/C(=C\c3ccc(OC)cc3)C2=O)cc1 [Compound 1f]	520 ± 70	–
COc1cc(/C=C2\CN(C(=O)C(Cl)Cl)C/C(=C\c3cc(OC)c(OC)c(OC)c3)C2=O)cc(OC)c1OC [Compound 1h]	140 ± 10	–

Same assay, conditions: average CC50 towards HGF, HPLF, HPC divided by CC50 against HSC-2

Structure (SMILES)	SI (HSC-2)
O=C1C(=Cc2ccc(Cl)c(Cl)c2)CN(C(=O)C(Cl)Cl)CC1=Cc1ccc(Cl)c(Cl)c1 [Compound 1e]	9.75
COc1ccc(/C=C2\CN(C(=O)C(Cl)Cl)C/C(=C\c3ccc(OC)cc3)C2=O)cc1 [Compound 1f]	11.5
